# Data published in patent US9981916B2 (Genentech, Inc., priority 2013, dated 2018).
# Target: T1, RORc ligand binding domain (Homo sapiens, UniProt P51449)
# T1 construct: host or cells: E. coli
# T1 sequence (P51449 269-508 limits assumed): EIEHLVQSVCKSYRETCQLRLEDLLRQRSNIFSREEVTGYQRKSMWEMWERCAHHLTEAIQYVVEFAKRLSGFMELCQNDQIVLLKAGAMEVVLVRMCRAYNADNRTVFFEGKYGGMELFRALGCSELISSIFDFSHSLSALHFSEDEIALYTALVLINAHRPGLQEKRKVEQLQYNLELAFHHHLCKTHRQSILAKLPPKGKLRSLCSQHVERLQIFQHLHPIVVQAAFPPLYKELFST
# Assay: In vitro RORc ligand binding assay (25-[3H]hydroxycholesterol displacement, filter binding)
# Conditions: 6 nM 25-[3H]hydroxycholesterol, 0.6 ug/mL RORc receptor, 3 h at 25° C.
# Outline: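 Compounds in 5% DMSO, either dose-response or screened at 1 and 10 uM, competed with 6 nM 25-[3H]hydroxycholesterol for 0.6 ug/mL RORc over 3 h at 25° C (HEPES pH 7.4, NaCl, MgCl2, DTT, BSA buffer). Bound tracer was filter-harvested and counted; nonspecific binding came from 1 uM 25-hydroxycholesterol.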
row,IC50 [nM],SMILES
1,2840,"COC[C@@H]1CCCN1C(=O)[C@]12CC[C@H](c3cc(-c4c(F)cccc4F)nnc31)C2(C)C [Example 246, ((5S,8S)-3-(2,6-difluorophenyl)-9,9-dimethyl-5,6,7,8-tetrahydro-5,8-methanocinnolin-8-yl)((S)-2-(methoxymethyl)pyrrolidin-1-yl)methanone]"
2,1530,"CC1(C)[C@@H]2CC[C@@]1(C#N)c1nnc(-c3ccccc3F)cc12 [Example 52, (5S,8S)-3-(2-fluorophenyl)-9,9-dimethyl-6,7-dihydro-5,8-methanocinnoline-8(5H)-carbonitrile]"
3,307,"CC1(C)[C@@H]2CC[C@@]1(C(=O)N1CC(CC#N)C1)c1nnc(-c3c(F)cccc3F)cc12 [Example 264, 2-(1-((5S,8S)-3-(2,6-difluorophenyl)-9,9-dimethyl-5,6,7,8-tetrahydro-5,8-methanocinnoline-8-carbonyl)azetidin-3-yl)acetonitrile]"
4,381,"CC1(C)[C@@H]2CC[C@@]1(CO)c1nnc(-c3c(F)cccc3Cl)cc12 [Example 23, [(5S,8S)-3-(2-chloro-6-fluorophenyl)-9,9-dimethyl-6,7-dihydro-5,8-methanocinnolin-8(5H)-yl]methanol]"
5,1120,"CN(C)C1CN(C(=O)[C@]23CC[C@H](c4cc(-c5c(F)cccc5F)nnc42)C3(C)C)C1 [Example 79, [(5S,8S)-3-(2,6-difluorophenyl)-9,9-dimethyl-6,7-dihydro-5,8-methanocinnolin-8(5H)-yl][3-(dimethylamino)azetidin-1-yl]methanone]"
6,1370,"Cc1nnc(NC[C@@]23CC[C@@H](c4cc(-c5c(F)cccc5F)nnc42)C3(C)C)o1 [Example 144, N-(((5R,8S)-3-(2,6-difluorophenyl)-9,9-dimethyl-5,6,7,8-tetrahydro-5,8-methanocinnolin-8-yl)methyl)-5-methyl-1,3,4-oxadiazol-2-amine]"
7,811,"CC(C)c1nnc([C@@]23CC[C@@H](c4cc(-c5c(F)cccc5F)nnc42)C3(C)C)o1 [Example 125, (5R,8R)-3-(2,6-difluorophenyl)-9,9-dimethyl-8-(5-isopropyl-1,3,4-oxadiazol-2-yl)-5,6,7,8-tetrahydro-5,8-methanocinnoline]"
8,68,"Cc1ocnc1[C@@]12CC[C@@H](c3cc(-c4c(F)cccc4F)nnc31)C2(C)C [Example 193, 4-((5R,8S)-3-(2,6-difluorophenyl)-9,9-dimethyl-5,6,7,8-tetrahydro-5,8-methanocinnolin-8-yl)-5-methyloxazole]"
9,136,"Cc1nc([C@@]23CC[C@@H](c4cc(-c5c(F)cccc5F)nnc42)C3(C)C)no1 [Example 80, (5R,8R)-3-(2,6-difluorophenyl)-9,9-dimethyl-8-(5-methyl-1,2,4-oxadiazol-3-yl)-5,6,7,8-tetrahydro-5,8-methanocinnoline]"
10,19,"CCN(C[C@@]12CC[C@@H](c3cc(-c4c(F)cccc4F)nnc31)C2(C)C)c1nnc(C)o1 [Example 148, N-(((5R,8S)-3-(2,6-difluorophenyl)-9,9-dimethyl-5,6,7,8-tetrahydro-5,8-methanocinnolin-8-yl)methyl)-N-ethyl-5-methyl-1,3,4-oxadiazol-2-amine]"
11,1430,"CNC(=O)[C@H]1[C@@H]2CN(C(=O)[C@]34CC[C@H](c5cc(-c6c(F)cccc6F)nnc53)C4(C)C)C[C@@H]21 [Example 222, (1R,5S,6S)-3-((5S,8S)-3-(2,6-difluorophenyl)-9,9-dimethyl-5,6,7,8-tetrahydro-5,8-methanocinnoline-8-carbonyl)-N-methyl-3-azabicyclo[3.1.0]hexane-6-carboxamide]"
12,2970,"CC(C)(C)OC(=O)NCCC1CN(C(=O)[C@]23CC[C@H](c4cc(-c5c(F)cccc5F)nnc42)C3(C)C)C1 [Example 168, tert-butyl (2-(1-((5S,8S)-3-(2,6-difluorophenyl)-9,9-dimethyl-5,6,7,8-tetrahydro-5,8-methanocinnoline-8-carbonyl)azetidin-3-yl)ethyl)carbamate]"
13,612,"CC1(C)[C@@H]2CC[C@@]1(C(=O)N1CC3(CCCO3)C1)c1nnc(-c3c(F)cccc3F)cc12 [Example 221, ((5S,8S)-3-(2,6-difluorophenyl)-9,9-dimethyl-5,6,7,8-tetrahydro-5,8-methanocinnolin-8-yl)(5-oxa-2-azaspiro[3.4]octan-2-yl)methanone]"
14,71,"CC1(C)[C@H]2CC[C@]1(NCC(F)F)c1nnc(-c3c(F)cccc3F)cc12 [Example 307, (5R,8R)-N-(2,2-difluoroethyl)-3-(2,6-difluorophenyl)-9,9-dimethyl-5,6,7,8-tetrahydro-5,8-methanocinnolin-8-amine]"
15,528,"CC1(C)[C@@H]2CC[C@@]1(C(=O)NCC(F)F)c1nnc(-c3c(F)cccc3F)cc12 [Example 210, (5S,8S)-N-(2,2-difluoroethyl)-3-(2,6-difluorophenyl)-9,9-dimethyl-5,6,7,8-tetrahydro-5,8-methanocinnoline-8-carboxamide]"
16,880,"CNC(=O)C[C@]12CC[C@H](c3cc(-c4ccccc4F)nnc31)C2(C)C [Example 37, 2-[(5S,8S)-3-(2-fluorophenyl)-9,9-dimethyl-6,7-dihydro-5,8-methanocinnolin-8(5H)-yl]-N-methylacetamide]"
17,1480,"CN(C(=O)OCCO)[C@@]12CC[C@@H](c3cc(-c4c(F)cccc4F)nnc31)C2(C)C [Example 299, 2-hydroxyethyl ((5R,8R)-3-(2,6-difluorophenyl)-9,9-dimethyl-5,6,7,8-tetrahydro-5,8-methanocinnolin-8-yl)(methyl)carbamate]"
18,17,"CCc1nnc([C@@]23CC[C@@H](c4cc(-c5c(F)cccc5F)nnc42)C3(C)C)o1 [Example 122, (5R,8R)-3-(2,6-difluorophenyl)-9,9-dimethyl-8-(5-ethyl-1,3,4-oxadiazol-2-yl)-5,6,7,8-tetrahydro-5,8-methanocinnoline]"
19,286,"Cc1nnc(OC[C@@]23CC[C@@H](c4cc(-c5c(F)cccc5F)nnc42)C3(C)C)o1 [Example 143, 2-(((5R,8R)-3-(2,6-difluorophenyl)-9,9-dimethyl-5,6,7,8-tetrahydro-5,8-methanocinnolin-8-yl)methoxy)-5-methyl-1,3,4-oxadiazole]"
20,1420,"CC1(C)CN(C(=O)[C@@]23CC[C@@H](c4cc(-c5c(F)cccc5F)nnc42)C3(C)C)C1 [Example 142, ((5R,8R)-3-(2,6-difluorophenyl)-9,9-dimethyl-5,6,7,8-tetrahydro-5,8-methanocinnolin-8-yl)(3,3-dimethylazetidin-1-yl)methanone]"
21,114,"CC1(C)[C@H]2CC[C@]1(C)c1nnc(-c3c(F)cccc3F)cc12 [Example 1, (5R,8S)-3-(2,6-Difluorophenyl)-8,9,9-trimethyl-5,6,7,8-tetrahydro-5,8-methanocinnoline]"
22,100,"CC(=O)OC[C@@]12CC[C@@H](c3cc(Oc4c(F)cccc4F)nnc31)C2(C)C [Example 339, ((5R,8R)-3-(2,6-difluorophenoxy)-9,9-dimethyl-5,6,7,8-tetrahydro-5,8-methanocinnolin-8-yl)methyl acetate]"
23,199,"CC1(C)[C@H]2CC[C@]1(Cn1ccccc1=O)c1nnc(-c3c(F)cccc3F)cc12 [Example 121, 1-{[(5R,8S)-3-(2,6-difluorophenyl)-9,9-dimethyl-6,7-dihydro-5,8-methanocinnolin-8(5H)-yl]methyl}pyridin-2(1H)-one]"
24,124,"Cn1nc([C@@]23CC[C@@H](c4cc(-c5c(F)cccc5F)nnc42)C3(C)C)oc1=O [Example 226, 5-((5R,8R)-3-(2,6-difluorophenyl)-9,9-dimethyl-5,6,7,8-tetrahydro-5,8-methanocinnolin-8-yl)-3-methyl-1,3,4-oxadiazol-2(3H)-one]"
25,12,"CCN(C[C@@]12CC[C@@H](c3cc(-c4c(F)cccc4F)nnc31)C2(C)C)c1cccc(=O)[nH]1 [Example 301, 6-((((5R,8S)-3-(2,6-difluorophenyl)-9,9-dimethyl-5,6,7,8-tetrahydro-5,8-methanocinnolin-8-yl)methyl)(ethyl)amino) pyridin-2(1H)-one]"
26,22,"CCN(C[C@@]12CC[C@@H](c3cc(-c4c(F)cccc4F)nnc31)C2(C)C)c1nnc(CO)o1 [Example 296, (5-((((5R,8S)-3-(2,6-difluorophenyl)-9,9-dimethyl-5,6,7,8-tetrahydro-5,8-methanocinnolin-8-yl)methyl)(ethyl)amino)-1,3,4-oxadiazol-2-yl)methanol]"
27,2420,"CC1(C)[C@H]2CC[C@]1(CNCCO)c1nnc(-c3c(F)cccc3F)cc12 [Example 297, 2-((((5R,8S)-3-(2,6-difluorophenyl)-9,9-dimethyl-5,6,7,8-tetrahydro-5,8-methanocinnolin-8-yl)methyl)amino)ethanol]"
28,643,"CC1(C)[C@@H]2CC[C@@]1(CN1CCN(CCN3CCOCC3)C1=O)c1nnc(-c3ccccc3F)cc12 [Example 48, 1-{[(5S,8R)-3-(2-fluorophenyl)-9,9-dimethyl-6,7-dihydro-5,8-methanocinnolin-8(5H)-yl]methyl}-3-[2-(morpholin-4-yl)ethyl]imidazolidin-2-one]"

row,SMILES,IC50 [nM]
1,"CC1(C)[C@@H]2CC[C@@]1(C(=O)N1C3CCC1CC3)c1nnc(-c3c(F)cccc3F)cc12 [Example 247, 7-azabicyclo[2.2.1]heptan-7-yl((5S,8S)-3-(2,6-difluorophenyl)-9,9-dimethyl-5,6,7,8-tetrahydro-5,8-methanocinnolin-8-yl)methanone]",1110
